This is an account of results in patent US12630547B2, “RAS protein degraders, pharmaceutical compositions thereof, and their therapeutic applications” (BioTheryX, Inc., priority 2019, dated 2026).

Like-named read-outs stand apart in the source and are kept apart here. Where only a bound is given, the exact number is not on record here.

The term viability denotes a read-out of living cells in per cent, often relative to untreated cells. Broadly, the IC50 is the concentration that gives 50% inhibition.

Type in all cases: cell-based
One experiment concerns MV-4-11 cells. Kind of experiment: Cell viability assay (CELLTITER-GLO), MV-4-11 cells. The conditions noted are these: Homo sapiens, MV4-11, 72 h; Table 1; compound at 10 μM, 3 days; read-out: Effect on MV-4-11 cell viability (% DMSO). The protocol:
MOLM-13 cells, MV-4-11 cells, H23, and H358 cells were independently cultured in RPMI 1640 media supplemented with 10% fetal bovine serum, streptomycin and penicillin. The cells were plated in white walled 96-well plates at 4,000 cells/well. The cells were incubated in DMSO (control) or a compound for 3 days at 37° C. under 5% CO2. A CELLTITER-GLO® reagent (100 μL) was then added to each well. After a 10 min incubation with shaking, luminescence was measured using an ENVISION® multimode plate reader.
In Tables 1 and 2, each compound was tested at 10 μM; and in Table 3, each compound was tested at 1 μM. In Tables 1 to 3, the cell viability values as % DMSO are reported as “A,” “B,” “C,” or “D;” where “A” represents a % viability value of less than 10%; “B” represents a % viability value of no less than 10% and less than 25%; “C” represents a % viability value of no less than 25% and less than 50%; and “D” represents a % viability value of no less than 50%. Compound A is […]
A general note: ATP-based viability assays read luminescence as a measure of living cells.

A further experiment has as its system H358 cells. Kind of experiment: Cell viability assay (CELLTITER-GLO), H358 cells. The conditions noted are these: 3 days; for viability at 10 µM: Table 1, compound at 10 μM, read-out: Effect on H358 cell viability (% DMSO). Summed up:
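H358 cells (RPMI 1640, 10% FBS), 4,000 per well, exposed to compound for 3 days at 37 °C, 5% CO2; viability by CellTiter-Glo luminescence. Single-dose viability as % DMSO at 10 or 1 μM, binned A (<10%) to D (≥50%); IC50 binned A (≤1 μM) to D (>10 μM).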

Another experiment relates to MOLM-13 cells. Description: Cell viability assay (CELLTITER-GLO), MOLM-13 cells. The conditions noted are these: Homo sapiens, MOLM-13, 72 h, 3 days, read-out: Effect on MOLM-13 cell viability (% DMSO); for viability at 10 µM: compound at 10 μM; for viability at 1 µM: Table 3, compound at 1 μM. The method in brief: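 MV-4-11 and MOLM-13 cells in RPMI 1640/10% FBS were seeded at 4,000 cells/well and exposed to compound (10 μM or 1 μM) or DMSO for 3 days at 37 °C, 5% CO2. CellTiter-Glo luminescence gave viability as % DMSO, binned into ranges A (<10%) through D (≥50%).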

In another experiment the test system is H23 cells. Kind of experiment: Cell viability assay (CELLTITER-GLO), H23 cells. The note with it: Table 4, 3 days. The method in brief: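 H23 cells in RPMI 1640 with 10% FBS, 4,000 cells/well, exposed to compound or DMSO for 3 days at 37° C, 5% CO2. Viability read by CellTiter-Glo luminescence after 10 min. IC50 reported in potency bins.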
A further experiment concerns the target T1, KRAS protein (Homo sapiens, UniProt P01116, G12C).
T1 construct: endogenous in cells; host or cells: H358 cells
Kind of experiment: Protein degradation assay (western blot) in H358 cells. The conditions noted are these: 1 μM, 24 h. The protocol: H358 cells were grown in RPMI 1640 media supplemented with 10% fetal bovine serum, streptomycin, and penicillin. The cells were plated in 10 cm plates in the growth media. The next day, the cells were rinsed in 1× PBS with the media replaced by RPMI1640 supplemented with 2.5% fetal bovine serum, streptomycin, and penicillin. The cells were then treated with 1 μM of a compound for 24 h. Whole cell extracts were prepared using an immunoprecipitation (IP) lysis buffer. Briefly, the cells were washed once in PBS, and the cell pellets were resuspended in the IP lysis buffer and incubated for 15 min on ice. Cells debris was removed by centrifugation and the cleared whole cell lysates were transferred to new tubes for further analysis.
For a western blot analysis, the whole cell protein extracts were separated on 12% SDS-polyacrylamide gels, transferred to nitrocellulose, and probed with primary antibodies. Membranes were subsequently washed and probed with IRDYE® secondary antibodies. The signals were detected using an ODYSSEY® Imaging System. The antibodies used in the assay included anti-KRAS; β-actin mouse monoclonal antibody; IRDYE® 680RD goat anti-rabbit antibody; and IRDYE® 800CW goat anti-mouse antibody.
In general terms: Immunoblotting shows a protein as a band on a membrane.

T1 sequence (P01116 1-188 isoform P01116-2 G12C): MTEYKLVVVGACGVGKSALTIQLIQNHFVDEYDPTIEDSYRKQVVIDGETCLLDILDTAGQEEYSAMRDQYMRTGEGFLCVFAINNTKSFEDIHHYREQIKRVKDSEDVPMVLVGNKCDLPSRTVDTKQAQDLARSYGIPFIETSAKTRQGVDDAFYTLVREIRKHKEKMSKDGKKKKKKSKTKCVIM

For `C=CC(=O)N1CCN(c2ncnc3c(F)c(-c4c(O)cccc4F)c(Cl)cc23)CC1` [A, 1-(4-(6-chloro-8-fluoro-7-(2-fluoro-6-hydroxyphenyl)quinazolin-4-yl)piperazin-1-yl)prop-2-en-1-one, reference compound], the viability at 10 µM lay in the range of 25 to 50% with MV-4-11 cells; 25 to 50% with H358 cells (Homo sapiens, NCI-H358, 72 h); 25 to 50% with MOLM-13 cells (Table 1). Also, the IC50 was found to be 0.99 µM in the experiment with H358 cells (Homo sapiens, NCI-H358, 72 h, Table 4, read-out: Inhibition of H358 cells, IC50) and 4.3 µM in the experiment with H23 cells (Homo sapiens, NCI-H23, 72 h, read-out: Inhibition of H23 cells, IC50). In addition, the viability at 1 µM with MOLM-13 cells is no less than 50%.
With `C=CC(=O)N1CCN(c2ncnc3c(F)c(-c4c(F)cccc4OCCOCCOCCC(=O)NCCNc4cccc5c4C(=O)N(C4CCC(=O)NC4=O)C5=O)c(Cl)cc23)CC1` (stereo not shown) [Compound 1, 3-(2-(2-(2-(4-(4-Acryloylpiperazin-1-yl)-6-chloro-8-fluoroquinazolin-7-yl)-3-fluorophenoxy)ethoxy)ethoxy)-N-(2-((2-(2,6-dioxopiperidin-3-yl)-1,3-dioxoisoindolin-4-yl)amino)ethyl)propanamide], the viability at 10 µM in the experiment on MV-4-11 cells was in the range of 10 to 25%; in the experiment on H358 cells (Homo sapiens, NCI-H358, 72 h), 25 to 50%; in the experiment with MOLM-13 cells (Table 1), 25 to 50%. In the experiment with H358 cells (Table 4), the “Inhibition of H358 cells, IC50 (class)” value is given as “C′”. In the experiment on MOLM-13 cells, the viability at 1 µM was no less than 50%. Moreover, the “Inhibition of H23 cells, IC50 (class)” value with H23 cells is on record as “C′”.
Consider `C=CC(=O)N1CC(N2Cc3ccc(-c4cc(O)cc5ccccc45)cc3N(CCOCCOCCOCCNc3cccc4c3C(=O)N(C3CCC(=O)NC3=O)C4=O)C2=O)C1` (stereo not shown) [Compound 2, 4-((2-(2-(2-(2-(3-(1-Acryloylazetidin-3-yl)-7-(3-hydroxynaphthalen-1-yl)-2-oxo-3,4-dihydroquinazolin-1(2H)-yl)ethoxy)ethoxy)ethoxy)ethyl)amino)-2-(2,6-dioxopiperidin-3-yl)isoindoline-1,3-dione], for which the viability at 10 µM was less than 10% in the experiment with MV-4-11 cells; 10 to 25% in the experiment with H358 cells (Homo sapiens, NCI-H358, 72 h); 10 to 25% in the experiment on MOLM-13 cells (Table 1).
Consider `C=CC(=O)N1CCN(c2ncnc3c(F)c(-c4c(F)cccc4OCCCCCCCN4CCC(c5cc(F)cc6c5CN(C5CCC(=O)NC5=O)C6=O)CC4)c(Cl)cc23)CC1` (stereo not shown) [Compound 36, 3-(4-(1-(7-(2-(4-(4-Acryloylpiperazin-1-yl)-6-chloro-8-fluoroquinazolin-7-yl)-3-fluorophenoxy)heptyl)piperidin-4-yl)-6-fluoro-1-oxoisoindolin-2-yl)piperidine-2,6-dione], for which the “degradation of KRAS protein” value at KRAS protein is reported as “about 60%”. Besides, the “Inhibition of H358 cells, IC50 (class)” value in the experiment with H358 cells (Table 4) is reported as “A′”. The viability at 10 µM in the experiment on MOLM-13 cells (Table 2) is less than 10%. Moreover, in the experiment with H23 cells, the “Inhibition of H23 cells, IC50 (class)” value is on record as “A′”.
Turning to `C=C(Cl)C(=O)N1CCN(c2ncnc3c(F)c(-c4c(F)cccc4OC[C@H]4CC[C@@H](CN5CCC(c6cc(F)cc7c6CN(C6CCC(=O)NC6=O)C7=O)CC5)CC4)c(Cl)cc23)CC1` (stereo partly shown) [Compound 127, 3-(4-(1-(((1s,4s)-4-((2-(6-Chloro-4-(4-(2-chloroacryloyl)piperazin-1-yl)-8-fluoro-quinazolin-7-yl)-3-fluorophenoxy)methyl)cyclohexyl)methyl)piperidin-4-yl)-6-fluoro-1-oxoisoindolin-2-yl)piperidine-2,6-dione], the “Inhibition of H358 cells, IC50 (class)” value in the experiment on H358 cells (Table 4) was “A′”. Besides, in the experiment on MOLM-13 cells (Table 2), the viability at 10 µM was less than 10%. In the experiment on H23 cells, the “Inhibition of H23 cells, IC50 (class)” value was “A′”.
Take `C=C(Cl)C(=O)N1CCN(c2nc(OC[C@@H]3CCCN3C)nc3c(F)c(-c4c(F)cccc4OCCCCCCCN4CCC(c5cc(F)cc6c5CN(C5CCC(=O)NC5=O)C6=O)CC4)c(Cl)cc23)C[C@H]1CC#N` (stereo partly drawn) [Compound 128, 2-((2R)-4-(6-Chloro-7-(2-((7-(4-(2-(2,6-dioxopiperidin-3-yl)-6-fluoro-1-oxoisoindolin-4-yl)piperidin-1-yl)heptyl)oxy)-6-fluorophenyl)-8-fluoro-2-(((S)-1-methylpyrrolidin-2-yl)methoxy)quinazolin-4-yl)-1-(2-chloroacryloyl)piperazin-2-yl)acetonitrile]: the “Inhibition of H358 cells, IC50 (class)” value in the experiment on H358 cells (Table 4) is “A′”. For the same molecule, in the experiment with MOLM-13 cells (Table 2), the viability at 10 µM was less than 10%. Besides, in the experiment on H23 cells, the “Inhibition of H23 cells, IC50 (class)” value is on record as “A′”.
As to `C=C(Cl)C(=O)N1CCN(c2ncnc3c(F)c(-c4c(F)cccc4OCCC4CCC(CCN5CCC(c6cc(F)cc7c6CN(C6CCC(=O)NC6=O)C7=O)CC5)CC4)c(Cl)cc23)C[C@H]1CC#N` (stereo partly drawn) [Compound 129, 2-((2R)-4-(6-Chloro-7-(2-(2-(4-(2-(4-(2-(2,6-dioxopiperidin-3-yl)-6-fluoro-1-oxoisoindolin-4-yl)piperidin-1-yl)ethyl)cyclohexyl)ethoxy)-6-fluorophenyl)-8-fluoroquinazolin-4-yl)-1-(2-chloroacryloyl)piperazin-2-yl)acetonitrile], in the experiment on H358 cells (Table 4), the “Inhibition of H358 cells, IC50 (class)” value is on record as “A′”. The viability at 10 µM in the experiment with MOLM-13 cells (Table 2) was less than 10%. Besides, in the experiment with H23 cells, the “Inhibition of H23 cells, IC50 (class)” value is on record as “B′”.
Taken in the same sequence, the figures for `C=C(Cl)C(=O)N1CCN(c2ncnc3c(F)c(-c4c(F)cccc4OCCC4CCC(CCN5CCC(c6cc(F)cc7c6CN(C6CCC(=O)NC6=O)C7=O)CC5)C4)c(Cl)cc23)CC1` (stereo not shown) [Compound 130, 3-(4-(1-(2-(3-(2-(2-(6-Chloro-4-(4-(2-chloroacryloyl)piperazin-1-yl)-8-fluoroquinazolin-7-yl)-3-fluorophenoxy)ethyl)cyclopentyl)ethyl)piperidin-4-yl)-6-fluoro-1-oxoisoindolin-2-yl)piperidine-2,6-dione] were “B′”, less than 10% and “A′”.
Consider `CCC(=O)N1CCN(c2ncnc3c(F)c(-c4c(F)cccc4OCCNCC(=O)N4CCC(C#Cc5cccc6c5CN(C5CCC(=O)NC5=O)C6=O)CC4)c(Cl)cc23)CC1` (stereo not shown) [Compound 133, 3-(4-((1-((2-(2-(6-Chloro-8-fluoro-4-(4-propionylpiperazin-1-yl)quinazolin-7-yl)-3-fluorophenoxy)ethyl)glycyl)piperidin-4-yl)-1λ^5-ethynyl)-1-oxoisoindolin-2-yl)piperidine-2,6-dione], for which the “Inhibition of H358 cells, IC50 (class)” value with H358 cells (Table 4) is recorded as “D′”. In addition, the viability at 10 µM in the experiment with MOLM-13 cells (Table 2) is no less than 50%. Moreover, the “Inhibition of H23 cells, IC50 (class)” value in the experiment on H23 cells is “D′”.
